Columns and labels:
[1] = test system: healthy male volunteers; conditions: cited from earlier work
[2] = test system: glutamate biomarker in plasma; assay: Example 5: glutamate biomarker in plasma of Rett Syndrome subjects; type: in vivo, human; conditions: week 0 vs week 7; Wilcoxon p (2-tailed)=0.046
Excerpt: In one aspect, the method further comprises measuring, or having measured or obtained a baseline biomarker level in the subject prior to treatment with ANAVEX2-73 as described herein, wherein the biomarker comprises plasma glutamate, gamma aminobutyric acid (GABA), PI3K, pAkt, mTOR, pMAPK, pERK, or any combinations thereof, and measuring or having measured or obtained at least a second level of the biomarker following a period of treatment with ANAVEX2-73 as described herein. […]
(§1) For efficacy, the following parameters were measured in the female subjects: Rett Syndrome Behavior Questionare (RSBQ), Clinical Global Impressions (CGI-I), hand behaviors (RSBQ), breathing problems (RSBQ), waking during sleep (RSBQ), and glutamate biomarker, and GABA biomarkers.
Evaluation of the efficacy was measured as a comparison from baseline (week 0), week 4, and to end of treatment (week 7). Blood plasma samples were analyzed at week 0 and at week 7 to measure the levels of glutamate and GABA biomarkers. […]

[3] = test system: pAkt; assay: pAkt levels in peripheral lymphocytes of Fmr1 KO2 mice (flow cytometry); type: in vivo
Description: (§2) In the aforementioned study by Reyes et al., ANAVEX2-73 or saline were administered twice daily at a dose of 1 mg/kg IP, to 2-month-old Fmr1 KO2 mice and wild type counterparts (N=10 mice per group, 40 mice total; for blood sample analyses: 5-7 mice per group) for two weeks. Brain samples were harvested for biochemical and molecular studies, blood samples were collected at baseline and on the last day of the behavioral assessments. Complementary cell signaling analyses were also conducted. These analyses were important because of their relevance to both preclinical and clinical research in FXS. Peripheral lymphocytes were isolated and stimulated with Phorbol-12-Myristate-13-Acetate in a buffer without phosphatase inhibitors but with U0126 (inhibitor of MAPK kinase). […] Resuspended cells were analyzed in a Coulter XL3 flow cytometer. […] Levels of pAkt and pERK were first characterized in terms of distribution, by the Shapiro-Wilk test of normality and Levene's and Bartlett's tests, which determined that all data were distributed normally and had equal variances. […] Once a significant difference was found, a two-way univariate ANOVA with genotype and treatment as between-subject factors, followed by a Tukey's post-hoc test, evaluated the differences between drug-treated and vehicle-treated WT and Fmr1 KO2 mice. […]

[4] = test system: female subjects diagnosed with Rett Syndrome; assay: Example 5: 7-week daily treatment of Rett Syndrome subjects (RSBQ, CGI-I); type: in vivo, human
Description: Six female subjects ranging from 16 to 22 years of age diagnosed with Rett Syndrome were administered 5 mg ANAVEX2-73 liquid formulation (1 m_of a 5 mg/mI_ANAVEX2-73 solution) daily for a total daily dose of […], over a period of 7 weeks.
as §1
Evaluation of the efficacy was measured as a comparison from baseline (week 0), week 4, and to end of treatment (week 7). Blood plasma samples were analyzed at week 0 and at week 7 to measure the levels of glutamate and GABA biomarkers. The evaluation of efficacy used a two-tailed statistical analysis.

[5] = test system: BDNF; conditions: 1 mg/kg IP twice daily for two weeks; cited from earlier work
[6] = physchem; type: physicochemical
Excerpt: Dosage formulations used in the disclosed methods comprise a therapeutically effective amount of ANAVEX2-73, the crystalline HCI salt of tetrahydro-N,N-dimethyl-2,2-diphenyl-3-furanmethanamine, or tetrahydro-N,N-dimethyl-2,2-diphenyl-3-furanmethanamine hydrochloride (IUPAC name: 1-(2,2-diphenyloxolan-3-yl)-A/,A/-dimethylmethanamine hydrochloride). […] Thus ANAVEX2-73 (used herein to refer to the HCI salt or the free base) is highly amenable to incorporation in the dosage formulations disclosed herein. For example, ANAVEX2-73 as either the HCI salt or the free base has a relatively low molecular weight (<400 Da), and is thus well suited for transmucosal or transdermal delivery, or rapid oral delivery. ANAVEX2-73 has a pKa around 8-9, which also makes it well-suited for transmucosal delivery. Therapeutically effective doses of ANAVEX2-73 are well suited for various thin film formulations, including oral and transdermal thin film formulations.

[7] = test system: Fmr1 knockout 2 mice, KO2; conditions: 1 mg/kg IP twice daily for two weeks; cited from earlier work
[8] = test system: subject diagnosed with Rett Syndrome; assay: Example 6: liquid formulation given to a subject with Rett Syndrome; type: in vivo, human; conditions: 1 mL of a liquid formulation (0.2 mg/mL)
Description: A subject, diagnosed with Rett Syndrome is administered 1 mL of a liquid formulation (0.2 mg/mL).

[9] = test system: pERK; assay: pERK levels in peripheral lymphocytes of Fmr1 KO2 mice (flow cytometry); type: in vivo; conditions: 1 mg/kg IP twice daily for two weeks, 7 per group, t-test p=0.046, post-hoc p=0.096
Description: as §2

[10] = test system: subject diagnosed with Rett Syndrome; assay: Example 1: liquid formulation given to a subject with Rett Syndrome; type: in vivo, human; conditions: 5 mL of a liquid formulation (0.2 mg/mL)
Description: A subject diagnosed with Rett Syndrome was administered 5 mL of a liquid formulation (0.2 mg/mL).

For `CN(C)CC1CCOC1(c1ccccc1)c1ccccc1.Cl` (stereo not drawn) [ANAVEX2-73, tetrahydro-N,N-dimethyl-2,2-diphenyl-3-furanmethanamine hydrochloride], the safety and tolerability ([1]; ascending single oral doses of 1, 10, 30, 40, 50 and 55 mg, healthy subjects) is listed as “safe and well tolerated”, the observed adverse events ([1]; at highest doses) is listed as “only moderate and reversible dizziness and headache” and the “minimum intolerable dose (MID)” value ([1]; human, in vivo, po) is listed as 60 mg. For the same compound, the serious adverse events ([1]; single ascending oral doses) was “No serious adverse events occurred”, the “maximum tolerable dose (MTD)” value ([1]; single oral dose, based on frequency and intensity of adverse events) was 55 mg and the “levels of glutamate biomarker in plasma” value [2] was “decreased significantly”. The “pAkt levels, drug-treated vs vehicle-treated Fmr1 KO2 mice” value ([3]; 1 mg/kg IP twice daily for two weeks, 5 animals per group, p=0.01) was “significantly lower”, the “pAkt levels, drug-treated mutant mice vs vehicle-treated WT mice” value ([3]; ANOVA) was “comparable” and the “RSBQ and CGI-I” value ([4]; after 7 weeks, p=0.003) was “reduction”. The “improvement in the RSBQ (total score)” value ([4]; all six subjects, 5 mg liquid formulation daily, week 0 vs week 7) was “over 30%”, the “breathing problems (RSBQ)” value ([4]; compared to week 0, p=0.042) was “improvement” and the “hand behaviors (RSBQ)” value ([4]; compared to week 0, p=0.042) was “improvement”. The “waking during sleep (RSBQ)” value ([4]; compared to week 0, p=0.042) was “improvement”, the “BDNF levels in the hippocampus” value [5] was “normalized” and the chemical stability [6] was “excellent”. The pKa [6] was 8 to 9, the “solubility in organic solvents” value [6] was “soluble in almost all organic solvents” and the water solubility [6] was “high”. The “three neurobehavioral phenotypes (open field test, contextual fear conditioning, marble-burying)” value [7] was “marked improvement or normalization”, the CGI-I index [8] was “improvement” and the “Rett Syndrome Behavior Questionnaire (RSBQ)” value [8] was “improvement”. For the same compound, the “pERK levels, drug-treated vs vehicle-treated Fmr1 KO2 mice” value [9] was “mildly reduced”, the cognition [10] was “improvement” and the motor skills [10] was “improvement”.

Source: patent publication US12558340B2, “ANAVEX2-73 for the treatment of genetic neurodevelopmental disorders” (ANAVEX LIFE SCIENCES CORP., priority 2019, dated 2026)
